These results are taken from ChEMBL document CHEMBL4422689, “Discovery of 4'-OH-flurbiprofen Mannich base derivatives as potential Alzheimer's disease treatment with multiple inhibitory activities” (Bioorg Med Chem, 2019).

Calls of active or inactive are those of the source. The rule behind the calls is not given here.

Series [1] can be described thus: Inhibition of Cu2+-induced human amyloid beta (1 to 42) aggregation at 25 uM after 24 hrs by thioflavin T-based fluorometric assay relative to control.
The nature of series [2]: Antioxidant activity assessed as trolox equivalents of AAPH radical scavenging activity at 1 to 10 uM preincubated for 15 mins followed by AAPH addition measured every min for 90 mins by ORAC-FL assay. It is filed as functional.
Series [3] concerns the target Acetylcholinesterase (Electrophorus electricus) (UniProt O42275). Put plainly: Inhibition of Electrophorus electricus AChE at 50 uM using acetylthiocholine iodide as substrate measured after 15 mins by Ellman's method relative to control. (In general: DTNB colorimetry detects thiols as they appear.)
The target in series [4] is Amyloid-beta precursor protein (Homo sapiens) (UniProt P05067). Nature of the series: Inhibition of HFIP-pretreated human amyloid beta (1 to 42) self-induced aggregation at 25 uM measured after 24 hrs by thioflavin-T fluorescence assay relative to control.
Chain of Amyloid-beta precursor protein (Homo sapiens) (P05067 whole entry): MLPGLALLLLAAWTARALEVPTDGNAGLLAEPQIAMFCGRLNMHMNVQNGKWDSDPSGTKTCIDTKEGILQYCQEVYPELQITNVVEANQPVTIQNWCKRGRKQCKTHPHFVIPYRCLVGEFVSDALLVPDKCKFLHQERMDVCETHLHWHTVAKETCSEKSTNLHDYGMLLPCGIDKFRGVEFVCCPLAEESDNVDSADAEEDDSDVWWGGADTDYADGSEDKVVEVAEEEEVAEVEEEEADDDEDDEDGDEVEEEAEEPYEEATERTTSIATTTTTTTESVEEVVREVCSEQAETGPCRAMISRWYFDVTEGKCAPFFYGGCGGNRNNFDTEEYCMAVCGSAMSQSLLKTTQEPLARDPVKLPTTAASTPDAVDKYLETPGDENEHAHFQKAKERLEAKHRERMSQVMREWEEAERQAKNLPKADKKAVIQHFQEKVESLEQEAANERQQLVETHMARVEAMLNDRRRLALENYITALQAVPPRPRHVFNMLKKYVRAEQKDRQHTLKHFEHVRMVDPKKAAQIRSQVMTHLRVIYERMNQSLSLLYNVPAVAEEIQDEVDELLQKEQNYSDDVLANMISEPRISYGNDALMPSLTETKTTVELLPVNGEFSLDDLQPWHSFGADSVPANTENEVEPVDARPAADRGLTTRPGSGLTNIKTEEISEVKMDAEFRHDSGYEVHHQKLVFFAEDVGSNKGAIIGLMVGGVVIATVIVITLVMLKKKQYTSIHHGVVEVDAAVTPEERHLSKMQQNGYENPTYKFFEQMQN
The target of series [5] is Butyrylcholinesterase (BuChE) (Rattus norvegicus, UniProt Q9JKC1). Put plainly: (§1) Inhibition of rat serum BuChE at 25 uM using butyrylthiocholine iodide as substrate after 15 mins by Ellman's method relative to control. The conditions noted are these: rat serum, probe butyrylthiocholine iodide.
Chain of Butyrylcholinesterase (BuChE) (Q9JKC1 whole entry): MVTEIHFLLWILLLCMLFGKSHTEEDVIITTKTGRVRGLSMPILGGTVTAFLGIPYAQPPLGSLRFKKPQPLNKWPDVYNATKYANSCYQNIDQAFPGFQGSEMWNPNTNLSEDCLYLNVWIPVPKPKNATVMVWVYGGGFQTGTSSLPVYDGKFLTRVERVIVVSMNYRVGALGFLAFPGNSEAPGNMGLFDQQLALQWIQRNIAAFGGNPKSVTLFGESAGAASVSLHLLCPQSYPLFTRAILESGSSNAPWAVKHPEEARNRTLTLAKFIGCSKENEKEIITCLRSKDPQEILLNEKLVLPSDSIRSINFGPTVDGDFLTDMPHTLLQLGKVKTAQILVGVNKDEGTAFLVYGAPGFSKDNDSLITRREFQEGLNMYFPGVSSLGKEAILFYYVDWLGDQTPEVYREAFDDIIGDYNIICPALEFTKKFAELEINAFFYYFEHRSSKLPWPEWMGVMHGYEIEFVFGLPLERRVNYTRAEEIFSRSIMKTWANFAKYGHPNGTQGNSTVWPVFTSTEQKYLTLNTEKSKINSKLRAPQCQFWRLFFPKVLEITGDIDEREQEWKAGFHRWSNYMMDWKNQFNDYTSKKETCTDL
Series [6] deals with BV-2. Put plainly: Inhibition of LPS-induced nitric oxide production in mouse BV2 cells at 0.5 uM pretreated for 30 mins followed by LPS-stimulation and measured after 24 hrs by Griess assay relative to control. It is filed as functional. A general note: The Griess reaction detects nitrite, a stable product of nitric oxide.
The test system of series [7] is BV-2. Put plainly: Inhibition of LPS-induced TNFalpha production in mouse BV2 cells at 0.5 uM pretreated for 30 mins followed by LPS-stimulation and measured after 24 hrs by ELISA relative to control. It is filed as functional. Background: An ELISA detects its analyte on a solid surface through an enzyme-linked reagent.
Series [8] deals with BV-2. Nature of the series: Cytotoxicity against mouse BV2 cells assessed as effect on cell viability up to 10 uM after 24 hrs by MTT assay. The format is cell-based. The conditions noted are these: bv-2, 24 h.
Series [9] deals with BV-2. Nature of the series: Cytotoxicity against LPS-stimulated mouse BV2 cells assessed as effect on cell viability at 0.5 to 10 uM pretreated for 30 mins followed by LPS-stimulation and measured after 24 hrs by MTT assay. It is filed as cell-based. Particulars: bv-2, 24 h.
Series [10] has as its system BV-2. Nature of the series: Inhibition of LPS-induced nitric oxide production in mouse BV2 cells at 2.5 uM pretreated for 30 mins followed by LPS-stimulation and measured after 24 hrs by Griess assay relative to control. The format is functional.
A short description of series [11]: Permeability of the compound in pH 7.4 PBS/EtOH at 100 ug/ml after 18 hrs by PAMPA-BBB assay.
The test system of series [12] is BV-2. Nature of the series: Inhibition of LPS-induced TNFalpha production in mouse BV2 cells at 2.5 uM pretreated for 30 mins followed by LPS-stimulation and measured after 24 hrs by ELISA relative to control. The format is functional.
Series [13] deals with BV-2. Nature of the series: Cytotoxicity against LPS-stimulated mouse BV2 cells assessed as effect on cell viability at 2.5 to 10 uM pretreated for 30 mins followed by LPS-stimulation and measured after 24 hrs by MTT assay. It is filed as cell-based. The conditions noted are these: bv-2, 24 h.
For series [14], the system named is BV-2. Put plainly: Inhibition of LPS-induced nitric oxide production in mouse BV2 cells at 10 uM pretreated for 30 mins followed by LPS-stimulation and measured after 24 hrs by Griess assay relative to control. It is filed as functional.
In series [15] the test system is BV-2. Put plainly: Inhibition of LPS-induced TNFalpha production in mouse BV2 cells at 10 uM pretreated for 30 mins followed by LPS-stimulation and measured after 24 hrs by ELISA relative to control. It is filed as functional.
Another series deals with Butyrylcholinesterase (Rattus norvegicus, UniProt Q9JKC1). Described as §1. The conditions noted are these: 0.25 h, 25 µM.
Chain of Butyrylcholinesterase (Q9JKC1 whole entry): as above
The nature of series [16]: Metal chelating activity of the compound assessed as formation of Fe2+-compound complex by measuring red shift in maximum absorption at 37.5 uM after 30 mins by UV-vis absorption spectra analysis.
Series [17] can be described thus: Metal chelating activity of the compound assessed as formation of Fe2+-compound complex by measuring absorbance at 37.5 uM after 30 mins by UV-vis absorption spectra analysis.
The nature of series [18]: Metal chelating activity of the compound assessed as formation of Cu2+-compound complex by measuring red shift in maximum absorption at 37.5 uM after 30 mins by UV-vis absorption spectra analysis.
The nature of series [19]: Metal chelating activity of the compound assessed as formation of Al3+-compound complex by measuring red shift in maximum absorption at 37.5 uM after 30 mins by UV-vis absorption spectra analysis.
A short description of series [20]: Metal chelating activity of the compound assessed as formation of Zn2+-compound complex at 37.5 uM after 30 mins by UV-vis absorption spectra analysis.
Series [21] can be described thus: Metal chelating activity of the compound assessed as formation of Cu2+-compound complex by measuring absorbance at 37.5 uM after 30 mins by UV-vis absorption spectra analysis.

Chain of Acetylcholinesterase (Electrophorus electricus) (O42275 24-633 limits assumed): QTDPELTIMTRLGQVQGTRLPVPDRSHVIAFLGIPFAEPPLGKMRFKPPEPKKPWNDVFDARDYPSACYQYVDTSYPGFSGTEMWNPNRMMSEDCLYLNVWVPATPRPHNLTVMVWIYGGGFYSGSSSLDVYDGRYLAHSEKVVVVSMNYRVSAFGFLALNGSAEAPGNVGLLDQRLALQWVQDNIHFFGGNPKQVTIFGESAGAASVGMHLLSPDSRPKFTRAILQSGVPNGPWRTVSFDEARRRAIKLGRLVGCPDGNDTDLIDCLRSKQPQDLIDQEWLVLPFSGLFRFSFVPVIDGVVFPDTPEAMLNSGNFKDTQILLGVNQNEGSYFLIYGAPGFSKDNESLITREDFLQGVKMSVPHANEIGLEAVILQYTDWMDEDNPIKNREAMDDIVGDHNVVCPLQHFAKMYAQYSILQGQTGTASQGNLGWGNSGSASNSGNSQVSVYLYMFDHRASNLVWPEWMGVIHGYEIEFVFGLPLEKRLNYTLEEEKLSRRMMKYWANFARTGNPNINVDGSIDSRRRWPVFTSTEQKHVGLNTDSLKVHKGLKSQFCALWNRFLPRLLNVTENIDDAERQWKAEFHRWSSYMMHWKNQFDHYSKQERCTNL

As to `COC(=O)C(C)c1ccc(-c2ccc(O)c(CN(C)Cc3ccccc3OC)c2)c(F)c1` (stereo not drawn), the inhibition was determined as 38.8% in [1], 28% in series [3] and 60.6% in [4]. Further, the Activity in series [2] came to 2.12 µMequiv/µM. This compound also had an inhibition at 0.25 h, 25 µM in series [5] of 3.06%.
As for `COC(=O)C(C)c1ccc(-c2ccc(O)c(CN3CCOCC3)c2)c(F)c1` (stereo not drawn), the inhibition turned out to be 22.1% in series [1], 14.9% in series [3] and 12.9% in [4]. Moreover, the Activity in series [2] was found to be 2.14 µMequiv/µM. The compound also returned an inhibition at 0.25 h, 25 µM in series [5] of 1.19%.
Regarding `COC(=O)C(C)c1ccc(-c2ccc(O)c(CN(C)C)c2)c(F)c1` (stereo not drawn), the inhibition at 0.5 µM in the series with BV-2 [6] was found to be 21.7%; in the series with BV-2 [7], 21.8%. For the same compound, the inhibition was 38.1% in [1], 18.6% in series [3] and 42.7% in [4]. In addition, the Activity entry was “Non-Toxic” with BV-2 [8], 2.07 µMequiv/µM in series [2], “Non-Toxic” with BV-2 [9] and “Non-Toxic” in the series with BV-2 [13]. The figures for the inhibition at 2.5 µM in the series with BV-2 [10] and in the series on BV-2 [12] were 39.2% and 51.2%, respectively. This compound also gave a Papp at 18 h, 100 ug/ml in [11] of 6.78 ×10⁻⁶ cm/s. In series [5], this compound yielded an inhibition at 0.25 h, 25 µM of 2.56%. Also, the inhibition at 10 µM amounted to 61.7% in the series on BV-2 [14] and 72.9% in the series with BV-2 [15].
For `COC(=O)C(C)c1ccc(-c2ccc(O)c(CN3CCN(C)CC3)c2)c(F)c1` (stereo not drawn), the inhibition in series [1] is 16.2%; in [3] it was 13.3%; in series [4] it was 34.1%. The Activity in [2] came out at 2.12 µMequiv/µM. The inhibition at 0.25 h, 25 µM in series [5] came out at 1.12%.
As for `CC(C(=O)O)c1ccc(-c2ccccc2)c(F)c1` (stereo not drawn) [FLURBIPROFEN], the inhibition in series [1] amounted to 7.56%; in series [3] it was 15.6%; in [4], 12.8%. In series [2], the Activity was 0.18 µMequiv/µM. For the same compound, the inhibition at 2.5 µM in the series on BV-2 [10] worked out at 11.8%; with BV-2 [12] it was 9.6%. The same compound had a Papp at 18 h, 100 ug/ml in series [11] of 1.56 ×10⁻⁶ cm/s. Moreover, the “inhibition (INH)” value against Butyrylcholinesterase was “Not Active”. The inhibition at 10 µM with BV-2 [14] is 23%; in the series with BV-2 [15] it was 30.3%.
In the case of `COC(=O)C(C)c1ccc(-c2ccc(O)c(CN3CCCCC3)c2)c(F)c1` (stereo not drawn), the inhibition in series [1] stood at 11.2%; in series [3], 22.9%; in [4], 15.5%. In series [2], the Activity amounted to 1.51 µMequiv/µM. The compound further registered an inhibition at 0.25 h, 25 µM in [5] of 1.95%.
The matching figures for `COC(=O)C(C)c1ccc(-c2ccc(O)c(CN3CCCC3)c2)c(F)c1` (stereo not drawn): 28.5%, 17%, 15.8%, 2.13 µMequiv/µM and 1.38%.
For `CCN(Cc1ccccc1)Cc1cc(-c2ccc(C(C)C(=O)OC)cc2F)ccc1O` (stereo not drawn), the inhibition is 34.9% in series [1], 36.4% in [3] and 36.8% in [4]. For the same compound, the Activity in [2] is 2.24 µMequiv/µM. For the same compound, the inhibition at 0.25 h, 25 µM in series [5] is 4.61%.
The like results for `CCN1CCN(Cc2cc(-c3ccc(C(C)C(=O)OC)cc3F)ccc2O)CC1` (stereo not drawn) were, in that order, 33.9%, 7.13%, 28.9%, 2.16 µMequiv/µM and 4.28%.
For the compound `CCN(Cc1ccc(N(C)C)cc1)Cc1cc(-c2ccc(C(C)C(=O)OC)cc2F)ccc1O` (stereo not drawn), the figures for the inhibition at 0.5 µM with BV-2 [6] and in the series on BV-2 [7] were 28.3% and 25.3%, respectively. Further, the figures for the inhibition in [1], in series [3] and in [4] were 38%, 34.1% and 65%, respectively. Also, the Activity result was “Non-Toxic” in the series with BV-2 [8]; 4.09 µMequiv/µM in series [2]; 270 nm in [16]; 0.1 in series [17]; 270 nm in series [18]; “Non-Toxic” with BV-2 [9]. The Activity in series [19] was 278 nm; in series [21], 0.1; with BV-2 [13], “Non-Toxic”. Besides, the result in [20] was inactive. The inhibition at 2.5 µM in the series with BV-2 [10] worked out at 32.5%; in the series on BV-2 [12] it was 55.3%. For the same compound, the Papp at 18 h, 100 ug/ml in [11] is 8.54 ×10⁻⁶ cm/s. This compound also had an inhibition at 0.25 h, 25 µM in [5] of 2.21%. The inhibition at 10 µM in the series on BV-2 [14] worked out at 65%; with BV-2 [15] it was 68.2%.
Take `COC(=O)C(C)c1ccc(-c2ccc(O)c(CN3CCN(Cc4ccccc4)CC3)c2)c(F)c1` (stereo not drawn): the inhibition in series [1] was found to be 39.2%; in series [3], 38.3%; in [4] it was 28.4%. In addition, in series [2], the Activity was 1.19 µMequiv/µM. The compound further displayed an inhibition at 0.25 h, 25 µM in series [5] of 2.86%.
The matching figures for `CCN(Cc1cc(-c2ccc(C(C)C(=O)OC)cc2F)ccc1O)Cc1ccccc1OC` (stereo not drawn): 42.5%, 28%, 60.5%, 2.6 µMequiv/µM and 5.12%.
On to `COC(=O)C(C)c1ccc(-c2ccc(O)c(CN(C)Cc3ccccc3)c2)c(F)c1` (stereo not drawn), for which the inhibition worked out at 31.2% in series [1], 35.1% in series [3] and 36.7% in series [4]. In addition, the Activity in series [2] was found to be 1.59 µMequiv/µM. In addition, the inhibition at 0.25 h, 25 µM in [5] amounted to 1.28%.
The like results for `CCN(Cc1cc(-c2ccc(C(C)C(=O)OC)cc2F)ccc1O)Cc1ccccc1N(C)C` (stereo not drawn) were, in that order, 42.1%, 45.5%, 60.6%, 1.57 µMequiv/µM and 16.3%.
The matching figures for `CCN(CC)Cc1cc(-c2ccc(C(C)C(=O)OC)cc2F)ccc1O` (stereo not drawn): 29.7%, 14.3%, 8.3%, 1.81 µMequiv/µM and 1.58%.
The compound `COc1cc2c(cc1OC)C(=O)C(CC1CCN(Cc3ccccc3)CC1)C2` (stereo not drawn) showed an inhibition in series [1] below 5%.
Same read-out and setting: then `COc1cc(/C=C/C(=O)CC(=O)/C=C/c2ccc(O)c(OC)c2)ccc1O`, with 67.2%.

One may read the inhibition as the share of the control response that was lost under treatment. The term Papp denotes the rate of passage across a membrane or cell layer, normalised by area and donor concentration.
